Results on two compounds are retold here after ChEMBL document CHEMBL1817596, “Synthesis of a hypoxia-targeted conjugate of the cardioprotective agent 3',4'-dihydroxyflavonol and evaluation of its ability to reduce ischaemia/reperfusion injury” (Bioorg Med Chem Lett, 2011).

Series [1] is described as follows: Drug uptake in rat Con8 cells assessed as compound level in supernatant under normoxic condition at 10^-5 M after 3 hrs by HPLC analysis. The series is classed as ADME, cell-based. The settings on record: con8, 3 h, 10 µM.
Series [2] can be described thus: Drug uptake in rat Con8 cells assessed as compound level in supernatant under hypoxic condition at 10^-5 M after 3 hrs by HPLC analysis. It counts as ADME, cell-based. The settings on record: con8, 3 h, 10 µM.
Series [3] is described as follows: Drug uptake in rat Con8 cells assessed as compound level in cell lysate under normoxic condition at 10^-5 M after 3 hrs by HPLC analysis. The series is classed as ADME, cell-based. As to conditions: con8, 3 h, 10 µM.
The nature of series [4]: Drug uptake in rat Con8 cells assessed as compound level in cell lysate under hypoxic condition at 10^-5 M after 3 hrs by HPLC analysis. It counts as ADME, cell-based. As to conditions: con8, 3 h, 10 µM.
The subject of series [5] is Aorta. Nature of the series: Vasorelaxant activity in Sprague-Dawley rat thoracic aortic rings assessed as inhibition of phenylephrine-induced contraction at 10^-5 M after 20 mins. The series is classed as functional, tissue-based.
The test system of series [6] is Aorta. Put plainly: Vasorelaxant activity in phenylephrine and KPSS-precontracted Sprague-Dawley rat thoracic aortic rings at 10^-10 to 10^-4 M measured after 20 mins. The series is classed as functional, tissue-based.
The test system of series [7] is Rattus norvegicus. Nature of the series: Cardioprotection activity in ischemia/reperfusion-induced Sprague-Dawley rat hindquarters assessed as reduction in circulating LDH level at 5 mg/kg, bolus dose administered 5 mins prior to reperfusion measured 2 hrs after reperfusion by UV-VIS spectrophotometry. It counts as functional, organism-based. Also noted: dose 5 mg/kg.

The test system of series [8] is Rattus norvegicus. Put plainly: Cardioprotection activity in ischemia/reperfusion-induced in Sprague-Dawley rat hindquarters assessed as reduction in MPO level at 5 mg/kg, bolus dose administered 5 mins prior to reperfusion by spectrophotometric analysis relative to control. The series is classed as functional, organism-based. Also noted: dose 5 mg/kg.
The subject of series [9] is Rattus norvegicus. Nature of the series: Cardioprotection activity in ischemia/reperfusion-induced Sprague-Dawley rat hindquarters assessed as reduction in circulating LDH level at 5 mg/kg, bolus dose administered 5 mins prior to reperfusion measured 3 hrs after reperfusion by UV-VIS spectrophotometry. It counts as functional, organism-based. Also noted: dose 5 mg/kg.

The subject of series [10] is Aorta. Nature of the series: Antioxidant activity in Sprague-Dawley rat thoracic aortic rings assessed as inhibition of NADPH-activated superoxide formation at 10^-6 to 10^-4 M by lucigenin-enhanced chemiluminescence assay. It counts as functional, tissue-based.
The test system of series [11] is Aorta. Put plainly: Inhibition of acetylcholine-induced relaxation Sprague-Dawley rat thoracic aortic rings at 10^-5 M after 20 mins in presence of superoxide generator pyrogallol. The series is classed as functional. Also noted: scale not given: the % may be the effect or the level left.
For series [12], the system named is Rattus norvegicus. Nature of the series: Cardioprotection activity in ischemia/reperfusion-induced Sprague-Dawley rat hindquarters assessed as reduction in circulating LDH level at 8.6 mg/kg, bolus dose administered 5 mins prior to reperfusion measured 30 mins to 3 hrs after reperfusion by UV-VIS spectrophotometry. The series is classed as functional, organism-based. Further details: dose 8.6 mg/kg.

For series [13], the system named is Rattus norvegicus. Nature of the series: Cardioprotection activity in ischemia/reperfusion-induced in Sprague-Dawley rat hindquarters assessed as reduction in MPO level at 8.6 mg/kg, bolus dose administered 5 mins prior to reperfusion by spectrophotometry relative to control. The series is classed as functional, organism-based. Further details: dose 8.6 mg/kg.

pEC50: −log10 of the molar value. The source made the active and inactive calls. No cut-off for these calls is given here.

By pEC50 is commonly meant the negative decadic logarithm of the EC50, by convention in mol/L. `O=c1c(O)c(-c2ccc(O)c(O)c2)oc2ccccc12`: the Drug uptake entry in series [1], in [2], in [3] and in series [4] was “Active” throughout. In addition, the result in series [5], in series [7] and in series [9] was Active. For the same compound, the pEC50 in [6] is 5.33. Moreover, the result in series [8] was inactive.
Consider `O=c1c(O)c(-c2ccc(O)c(O)c2)oc2ccc(-n3cc(Cn4ccnc4[N+](=O)[O-])nn3)cc12`, for which the Drug uptake result in series [1], in series [2], in [3] and in series [4] was “Active” each time. The outcome in series [5] and in series [6] was inactive. The outcome in series [10], in series [12] and in series [13] was Active. Moreover, the Activity in [11] is on record as 50%.
